Patent US20190065668A1, “STRUCTURE OF […] IN COMPLEX WITH AN INHIBITOR AND USES THEREOF” (priority 2015, published 2019)
Counter-ions that a name gives are not always drawn. Like-named read-outs stand apart in the source and are kept apart here.

Columns and labels:
[1] = test system: export of PfEMP3-GFP to P. falciparum-infected erythrocytes; assay: Pulse chase of PfEMP3-GFP processing and export to infected erythrocytes (tetanolysin release); details: for export of PfEMP3-GFP to parasite-infected erythrocytes: 10 μM pre-treatment 3 hr
[2] = biological target: T1, recombinant P. falciparum plasmepsin V (Plasmodium falciparum, UniProt Q8I6Z5); assay: Fluorogenic PEXEL cleavage assay (KAHRP FRET peptide), inhibition of recombinant P. falciparum plasmepsin V; format: biochemical
T1 construct: FLAG tag + SUMO domain + TEV protease cleavage site (secreted via signal peptide) (N, cleaved yes); made in house; host or cells: sf21 insect cells
Method: (§1) PEXEL cleavage assays (20 μl total volume) consisted of 1 ng/well of P. vivax plasmepsin V or 1.5 ng/well of P. falciparum plasmepsin V in buffer (25 mM Tris.HCl, 25 mM MES, pH 6.4) with 5 μM FRET peptide substrate (DABCYL-[…]-E-EDANS (SEQ ID NO:7) or peptides with the sequence DABCYL-[…]-E-EDANS (SEQ ID NO:8) or DABCYL-[…]-E-EDANS (SEQ ID NO:9)) (Sleebs, B. E. et al. 2014a; see FIG. 9). Samples were incubated at 37° C. for 120 min and measured using an Envision plate (Perkin-Elmer) reader (Ex 340 nm/Em 490 nm).
Reactions comprised of a fluorescent peptide of nine amino acids containing the PEXEL sequence (RTLAQ) from KAHRP. The KAHRP PEXEL peptide substrate DABCYL-[…]-E-EDANS (SEQ ID NO:7) was obtained commercially and used at a final assay concentration of 7.5 μM.
The end-point for all assays was set within the linear range of activity (approximately 1 hr.).
Tween-20 was used at 0.005% final assay concentration. Final assay buffer concentration was as follows: 25 mM Tris HCl, 25 mM MES (pH 6.4). Final assay volume was 20 μL.
An 11-point 1/3 serial dilution of compounds was generated using DMSO as a diluent (final assay concentration of 1%).
Assay reaction was incubated for 60 min at 37° C. and read using a fluorescence plate reader (Ex 340 nm, Em 495 nm). […]

P. falciparum parasites = assay: P. falciparum growth assay, parasitaemia at 72 hr by flow cytometry
[3] = test system: plasmepsin V cleavage of the PEXEL in PfEMP3-GFP; assay: PfEMP3-GFP PEXEL processing in P. falciparum trophozoites (immunoblot / 35S radiolabelling and immunoprecipitation); format: cell-based, Plasmodium falciparum
Description: P. falciparum 3D7 expressing the PEXEL protein erythrocyte membrane protein 3 (PfEMP3) fused to green fluorescent protein (GFP) (PfEMP3-GFP) was generated previously (Boddey, J. A. et al, 2010) (see FIG. 2C).
Membranes were probed with mouse a-GFP (Roche; 1:1000), rabbit a-Aldolase (1:1000) or rabbit a-HSP70 (1:4000) antibodies followed by horseradish peroxidase-conjugated secondary antibodies (Silenius; 1:2000) and visualized using enhanced chemiluminescence (Amersham). To radiolabel P. falciparum proteins, magnet-purified trophozoites expressing PfEMP3-GFP were treated with 10 μM inhibitors for 3 hr. […] PfEMP3-GFP protein species were then immunoprecipitated from parasite lysates solubilized in 1% Triton X-100/PBS containing 1× complete protease inhibitors (Roche) using anti-GFP agarose (MBL) for 2 hours at 4° C. and proteins were resolved by SDS-PAGE, visualized by autoradiography and quantified using a GS-800 Calibrated Densitometer (Bio-Rad) (Sleebs, B. E. et al. 2014a).

P. vivax plasmepsin V [4] = biological target: T2, P. vivax plasmepsin V (Plasmodium vivax, UniProt A5K302); assay: Surface plasmon resonance (Biacore 4000) direct binding; details: SPR; for Kd: 25° C., 1:1 interaction model, read-out: affinity (KD) for P. vivax plasmepsin V; for kd (off-rate): P. vivax plasmepsin V
T2 construct: gp67 signal peptide + FLAG tag + SUMO domain + TEV protease cleavage site (N, cleaved yes); made in house; host or cells: High Five insect cells
Method: Surface plasmon resonance was performed using a Biacore 4000 (GE Healthcare). Plasmepsin V was immobilized on a Series S CM5 sensor chip using amine-coupling chemistry. The surfaces of flow cells were activated for 10 min with a 1:1 mixture of 0.1 M NHS (N-hydroxysuccinimide) and 0.1 M EDC (3-(N,N-dimethylamino)propyl-N-ethylcarbodiimide) at a flow rate of […]. […] Compounds were allowed to associate and dissociate for 250 s and 600 s, respectively. Data were collected at a rate of 10 Hz and fit to a 1:1 interaction model using the Biacore 4000 Evaluation Software Version 1.0.

[5] = test system: plasmepsin V cleavage of the PEXEL in PfEMP3-GFP; details: PfEMP3-GFP processing; from Sleebs, B. E. et al. 2014; cited from earlier work
P. vivax plasmepsin V [6] = biological target: T2, P. vivax plasmepsin V; assay: Fluorogenic PEXEL cleavage assay (KAHRP FRET peptide), inhibition of recombinant P. vivax plasmepsin V; format: biochemical; details: KAHRP fluorogenic substrate 7.5 μM, 60 min, 37° C., pH 6.4
[7] = biological target: T1, recombinant P. falciparum plasmepsin V; assay: Kinetic characterisation of recombinant plasmepsin V (Michaelis-Menten / Lineweaver-Burk), P. falciparum enzyme; format: biochemical; details: fluorogenic PEXEL substrate from KAHRP
Method: (§2) The in vitro activity of recombinant P. falciparum and P. vivax plasmepsin V was assessed against a fluorogenic peptide of nine amino acids that contained the PEXEL sequence from knob-associated histidine-rich protein (“KAHRP”) (DABCYL-[…]-E-EDANS; SEQ ID NO: 7).
(§3) Values for Km were derived from both the inverse Michaelis-Menten and the Lineweaver-Burk plots. These values were of the same magnitude for each enzyme and are also similar to the Km derived from the activity of another recombinant form of P. falciparum plasmepsin V on a different PEXEL substrate (Xiao, H. et al. 2014).
as §1

P. vivax plasmepsin V [8] = biological target: T2, P. vivax plasmepsin V; assay: Kinetic characterisation of recombinant plasmepsin V (Michaelis-Menten / Lineweaver-Burk), P. vivax enzyme; format: biochemical; details: fluorogenic PEXEL substrate from KAHRP
Method: as §2, §3, §1

[9] = read-out: EC50, inhibition of growth of P. falciparum (3D7) parasites, 3D7, chloroquine-sensitive strain, 72 hr

T2 sequence (A5K302 33-476, looked up, natural form): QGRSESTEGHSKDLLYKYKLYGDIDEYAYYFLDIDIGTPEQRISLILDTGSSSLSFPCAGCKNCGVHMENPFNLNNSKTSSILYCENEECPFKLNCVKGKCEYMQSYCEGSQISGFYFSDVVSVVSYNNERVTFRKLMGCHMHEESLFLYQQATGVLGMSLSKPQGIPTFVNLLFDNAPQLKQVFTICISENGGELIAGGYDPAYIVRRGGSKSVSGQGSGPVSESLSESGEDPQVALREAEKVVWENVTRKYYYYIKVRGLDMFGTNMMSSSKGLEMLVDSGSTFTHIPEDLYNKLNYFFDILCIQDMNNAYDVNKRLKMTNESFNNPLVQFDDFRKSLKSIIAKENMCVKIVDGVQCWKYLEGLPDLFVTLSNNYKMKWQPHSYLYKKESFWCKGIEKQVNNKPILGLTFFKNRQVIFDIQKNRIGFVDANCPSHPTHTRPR
T1 sequence (Q8I6Z5 80-528): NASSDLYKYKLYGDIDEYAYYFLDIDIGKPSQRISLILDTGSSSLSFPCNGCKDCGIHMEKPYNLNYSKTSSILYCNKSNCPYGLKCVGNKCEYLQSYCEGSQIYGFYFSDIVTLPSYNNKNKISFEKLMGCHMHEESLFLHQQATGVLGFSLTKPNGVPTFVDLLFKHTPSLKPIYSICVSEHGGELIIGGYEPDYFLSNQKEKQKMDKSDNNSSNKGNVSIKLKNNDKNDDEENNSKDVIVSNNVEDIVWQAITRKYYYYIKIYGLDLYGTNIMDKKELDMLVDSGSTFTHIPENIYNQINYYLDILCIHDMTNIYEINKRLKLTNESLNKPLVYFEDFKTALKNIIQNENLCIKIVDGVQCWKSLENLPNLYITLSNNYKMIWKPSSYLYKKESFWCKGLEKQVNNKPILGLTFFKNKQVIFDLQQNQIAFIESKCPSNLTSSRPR

Which results are given for `CC(C)C[C@H](NC(=O)[C@@H](NC(=O)[C@H](CCON=C(N)N)NC(=O)OCc1ccccc1)C(C)C)[C@@H](O)CC(=O)NCCc1ccccc1` [WEHI-842, Cbz-Cav(NH2)—Val-Sta-NH(CH2)2Ph.TFA]?
reversibility of inhibition of PEXEL cleavage after removal of inhibitor ([1]; 10 μM 3 hr, then inhibitor-free medium 30 and 60 min): reversible; export of PfEMP3-GFP to parasite-infected erythrocytes ([1]; chase 20, 40 and 60 min): dramatically reduced export; export of PfEMP3-GFP to parasite-infected erythrocytes ([1]; chase 120 min): Efficient export of PfEMP3-GFP returned; increased potency against recombinant P. falciparum plasmepsin V compared to WEHI-916 ([2]; ratio of IC50 values): 15 fold; EC50 (P. falciparum parasites; [9]): 400 nM; EC50 (P. falciparum parasites; read-out: EC50, inhibition of growth of P. falciparum CS2, CS2, 72 hr): 830 nM; EC50 (P. falciparum parasites; read-out: EC50, inhibition of growth of P. falciparum NF54, NF54, 72 hr): 470 nM; EC50 (P. falciparum parasites; read-out: EC50, inhibition of growth of P. falciparum W2mef, W2mef (chloroquine-resistant), 72 hr): 640 nM; inhibition of plasmepsin V cleavage of PfEMP3-GFP ([3]; 10 μM, 3 hours, immunoblot): potently inhibited plasmepsin V cleavage of PfEMP3-GFP; time required for optimal inhibition of plasmepsin V in parasites ([3]; PfEMP3-GFP processing): 3 h; degree of PEXEL processing inhibition compared to WEHI-916 ([3]; PfEMP3-GFP, immunoblot): 10 fold; inhibition of PEXEL cleavage (accumulation of 35 kDa full-length PfEMP3-GFP) ([3]; parasites expressing PfEMP3-GFP, immunoblot): efficiently inhibited PEXEL cleavage; Kd (P. vivax plasmepsin V [4]): 13.4 nM; kd (off-rate) (P. vivax plasmepsin V [4]): 1.11 E-03 1/s

With `CC(C)C[C@H](NC(=O)[C@@H](NC(=O)[C@H](CCCNC(=N)N)NS(=O)(=O)Cc1ccccc1)C(C)C)[C@@H](O)CC(=O)NCCc1ccccc1` [WEHI-916, reference compound] as the compound, how does the IC50 ([2]; KAHRP fluorogenic substrate 7.5 μM, 60 min, 37° C., pH 6.4, read-out: IC50 against recombinant P. falciparum plasmepsin V) read?
The IC50 was 12.9 nM.

What about the “time required for optimal inhibition of plasmepsin V in parasites” value [5] of the same compound?
The value was 5 h.

What about the EC50 (P. falciparum parasites; read-out: EC50, blocking P. falciparum growth, summary statement, strain not stated) of the same compound?
The EC50 was 5000 nM.

And the EC50 (P. falciparum parasites; [9])?
The EC50 was 5000 nM.

And the IC50 (P. vivax plasmepsin V [6])?
The IC50 was 8.2 nM.

What about the Kd (P. vivax plasmepsin V [4]) of the same compound?
The Kd was 42 nM.

What about the “kd (off-rate)” value (P. vivax plasmepsin V [4]) of the same compound?
Its value is 2.47 E-03 1/s.

Which results are given for “DABCYL-RNKRTLAQKQ-E-EDANS [fluorogenic PEXEL substrate from KAHRP]”?
Km [7]: 20.2 µM; Km (P. vivax plasmepsin V [8]): 6 µM
